Patent US12203125B2, “Device for determining antimicrobial susceptibility of a microorganism” (Q-linea AB, priority 2015, dated 2025)
In brackets after ≈: the same amount, converted by molar mass.

What was measured:
Assay type in all cases: cell-based
clinical isolate QM171 [1] = experiment: Rapid AST: MIC calculated from microphotographs (biomass imaging, 0 to 4 hours) of isolate recovered from blood culture flask below 0.5 McFarland
Description: (§1) Dilutions of two different bacterial clinical isolates were seeded into an aerobic blood culture flask (Bactec, Becton Dickinson) at an estimated concentration of either 1 or 10 CFU/ml blood. Before seeding, the BCF had been filled with human blood from healthy donors. Aliquots from the dilution series were plated on agar and grown over night for viable count. Target concentration was 10 or 100 CFU seeded in 0.5 ml per BCF, corresponding to approximately 1 or 10 CFU/ml blood. The seeded BCF were allowed to incubate for 8 hours at 35° C. and a 5 ml aliquot were taken for subsequent AST. Another aliquot from the same BCF was used for determination of viable count after 8 hours' growth in the BCF.
(§2) A 5 ml aliquot of the cultured clinical isolate from the blood culture flask was filtered using a 100 μm filter to remove resin particles from the culture medium. The sample was thereafter mixed with a 10 ml of lysis buffer capable of selectively lysing any non-microbial cells present in the sample, and incubated for a sufficient amount of time for the non-microbial cells to be lysed. The resulting lysate was filtered through a 0.2 μm filter. Liquid components of the lysate (including components of the lysed non-microbial cells) passed through the filter, whereas microbial cells present in the sample were retained on the filter.
(§3) The retained microbial cells were re-suspended in liquid Mueller Hinton broth medium to form a microbial culture preparation, by back-flushing the filter with culture medium (i.e. flowing the culture medium in the opposite direction to filtration). 100 μl aliquots of the microbial culture preparation were then dispensed into wells of a microtiter plate.
(§4) The wells of the microtiter plate contained between 5 and 13 different concentrations of an antibiotic and different antibiotics. A negative control (i.e. comprising a blood sample with no seeded bacteria) and a positive control sample (i.e. an aliquot of the sample from a seeded BCF but into a well with no antimicrobial agent) were also set up at this stage.
(§5) Focus was performed on each inoculated well and each well was read at intervals of 1 hour. A total of 5 images were taken at time points from 0 to 4 hours after the initiation of the AST assay. The degree of microbial growth in each growth condition was monitored by imaging, by measuring the amount of microbial biomass in each well.
(§6) Microphotographs from the different wells were analysed to generate a numerical value of the biomass in the well and this was used as a marker of growth. From the growth a minimal inhibitory concentration was determined and compared to MIC obtained using a reference method, broth micro-dilution. […] A sample was determined to Pass (P) if within +/−1 two-fold dilution from the reference MIC.

clinical isolate QM006 [2] = experiment: as above
Description: as §1, §2, §3, §4, §5, §6

clinical isolate QM171 [3] = experiment: Reference MIC, broth micro-dilution (ISO 20776, turbidity after 16-20 hours); conditions: isolate QM171, broth micro-dilution from 0.5 McFarland, 16-20 hours growth
Description: as §6

clinical isolate QM006 [4] = experiment: as above; conditions: isolate QM006, broth micro-dilution from 0.5 McFarland, 16-20 hours growth
[5] = test system: gentamicin resistant E. coli strain; experiment: AST by imaging at different starting titers; conditions: starting concentration 2×10^6 CFU/ml (Lane B) vs 3×10^5 CFU/ml (Lane A), four hours growth
Source text: E. coli grown in blood+BCF media were recovered via a clean-up procedure to remove blood components and only retain viable bacteria in MH-media. Adjustment of the recovered bacteria were made to ensure different titers are used at start of the AST. AST assays were set up to a starting concentration of 3×10^5 CFU/ml (Lane A) and 2×10^6 CFU/ml (Lane B) of a gentamicin resistant E. coli strain. Aliquots of the recovered bacteria were dispensed into a microtiter plate with freeze dried antibiotics at varying concentrations and allowed to grow for four hours before imaging. Shown are microphotographs from a series of different concentration of antibiotics in two-fold dilutions ranging from 64 mg/l to 0.0625 mg/l of gentamicin.

[6] = isolate QM171, experiment repeat no. 1, imaging after 4 h
[7] = isolate QM171, experiment repeat no. 2, imaging after 4 h
[8] = isolate QM171, experiment repeat no. 3, imaging after 4 h
[9] = isolate QM171, experiment repeat no. 4, imaging after 4 h
[10] = isolate QM171, experiment repeat no. 5, imaging after 4 h
[11] = isolate QM171, experiment repeat no. 6, imaging after 4 h
[12] = isolate QM171, experiment repeat no. 7, imaging after 4 h
[13] = isolate QM006, experiment repeat no. 1, imaging after 4 h
[14] = isolate QM006, experiment repeat no. 2, imaging after 4 h
[15] = isolate QM006, experiment repeat no. 3, imaging after 4 h
[16] = isolate QM006, experiment repeat no. 4, imaging after 4 h
[17] = isolate QM006, experiment repeat no. 5, imaging after 4 h
[18] = isolate QM006, experiment repeat no. 6, imaging after 4 h
[19] = isolate QM006, experiment repeat no. 7, imaging after 4 h
[20] = isolate QM006, experiment repeat no. 8, imaging after 4 h
[21] = isolate QM006, experiment repeat no. 9, imaging after 4 h

Molecule	MIC calculated from microphotographs (clinical isolate QM171 [1]; [6])	MIC calculated from microphotographs (clinical isolate QM171 [1]; [7])	MIC calculated from microphotographs (clinical isolate QM171 [1]; [8])	MIC calculated from microphotographs (clinical isolate QM171 [1]; [9])	MIC calculated from microphotographs (clinical isolate QM171 [1]; [10])	MIC calculated from microphotographs (clinical isolate QM171 [1]; [11])	MIC calculated from microphotographs (clinical isolate QM171 [1]; [12])	MIC calculated from microphotographs (clinical isolate QM006 [2]; [13])	MIC calculated from microphotographs (clinical isolate QM006 [2]; [14])	MIC calculated from microphotographs (clinical isolate QM006 [2]; [15])	MIC calculated from microphotographs (clinical isolate QM006 [2]; [16])	MIC calculated from microphotographs (clinical isolate QM006 [2]; [17])	MIC calculated from microphotographs (clinical isolate QM006 [2]; [18])	MIC calculated from microphotographs (clinical isolate QM006 [2]; [19])	MIC calculated from microphotographs (clinical isolate QM006 [2]; [20])	MIC calculated from microphotographs (clinical isolate QM006 [2]; [21])	Reference MIC (clinical isolate QM171 [3])	Reference MIC (clinical isolate QM006 [4])	MIC value at higher bacterial titer compared with lower titer [5]
CO/N=C(\C(=O)N[C@@H]1C(=O)N2C(C(=O)O)=C(COC(C)=O)CS[C@H]12)c1csc(N)n1 [Cefotaxime]	8 µg/mL (≈ 17.6 µM)	> 16 µg/mL	> 16 µg/mL	> 16 µg/mL	> 16 µg/mL	16 µg/mL (≈ 35.1 µM)	16 µg/mL (≈ 35.1 µM)	> 8 µg/mL	> 16 µg/mL	> 16 µg/mL	> 16 µg/mL	> 16 µg/mL	> 16 µg/mL	> 16 µg/mL	> 16 µg/mL	> 16 µg/mL	> 8 µg/mL	> 8 µg/mL	–
CC(C)(O/N=C(\C(=O)N[C@@H]1C(=O)N2C(C(=O)[O-])=C(C[n+]3ccccc3)CS[C@H]12)c1csc(N)n1)C(=O)O [Ceftazidime]	2 µg/mL (≈ 3.66 µM)	2 µg/mL (≈ 3.66 µM)	2 µg/mL (≈ 3.66 µM)	2 µg/mL (≈ 3.66 µM)	2 µg/mL (≈ 3.66 µM)	2 µg/mL (≈ 3.66 µM)	1 µg/mL (≈ 1.83 µM)	8 µg/mL (≈ 14.6 µM)	16 µg/mL (≈ 29.3 µM)	8 µg/mL (≈ 14.6 µM)	8 µg/mL (≈ 14.6 µM)	8 µg/mL (≈ 14.6 µM)	16 µg/mL (≈ 29.3 µM)	8 µg/mL (≈ 14.6 µM)	16 µg/mL (≈ 29.3 µM)	8 µg/mL (≈ 14.6 µM)	2 µg/mL	16 µg/mL	–
C[C@@H](O)[C@H]1C(=O)N2C(C(=O)O)=C(S[C@@H]3CN[C@H](C(=O)N(C)C)C3)[C@H](C)[C@H]12 [Meropenem]	≤ 0.5 µg/mL	≤ 0.5 µg/mL	≤ 0.5 µg/mL	≤ 0.5 µg/mL	≤ 0.5 µg/mL	≤ 0.5 µg/mL	≤ 0.5 µg/mL	≤ 0.5 µg/mL	≤ 0.5 µg/mL	≤ 0.5 µg/mL	1 µg/mL (≈ 2.61 µM)	≤ 0.5 µg/mL	≤ 0.5 µg/mL	≤ 0.5 µg/mL	≤ 0.5 µg/mL	≤ 0.5 µg/mL	1 µg/mL	≤ 0.5 µg/mL	–
Gentamicin	0.5 µg/mL	0.5 µg/mL	0.5 µg/mL	0.5 µg/mL	0.5 µg/mL	0.5 µg/mL	0.25 µg/mL	16 µg/mL	16 µg/mL	16 µg/mL	16 µg/mL	16 µg/mL	16 µg/mL	16 µg/mL	16 µg/mL	16 µg/mL	≤ 0.5 µg/mL	> 16 µg/mL	higher MIC value
